What all share (assay type): functional, cell-based
The subject of test [1] is A121. The test is described as follows: Cytotoxic effect (tumor cell growth inhibition) on the human cell line A121 ovarian carcinoma at the dose of […].
The test system of test [2] is A121. As to the kind of experiment: Cytotoxic effect (tumor cell growth inhibition) on the human cell line A121 ovarian carcinoma at the dose of […].
The test system of test [3] is MCF7. As to the kind of experiment: Dose at which compound exhibits cytotoxicity in the MCF-7 cell line. Conditions: Homo sapiens.
In test [4] the test system is A121. The test is described as follows: Dose at which compound exhibits cytotoxicity in the A121 ovarian carcinoma cell line. Particulars: Homo sapiens.
The test system of test [5] is MCF7. The test is described as follows: Cytotoxic effect (tumor cell growth inhibition) on the human cell line MCF-7 breast carcinoma at a dose of […].

From ChEMBL document CHEMBL1131457, “cis-[PtCl2(4,7-H-5-methyl-7-oxo[1,2,4]triazolo[1,5-a]pyrimidine)2]: a sterically restrictive new cisplatin analogue. Reaction kinetics with model nucleobases, DNA interaction studies, antitumor activity, and structure-activity relationships” (J Med Chem, 1998) come the findings set out here.

Consider cis-[PtCl2(Hmtpo-N3)2].2H2O, for which the Cytotoxic effect turned out to be 84% in test [1], 53% in test [2] and 54.8% in test [5]. Further, the ID50 in test [3] was 33.4 µM; in test [4], 14.3 µM.
